In patent US12458659B2, “Methods for treating macrophage-mediated diseases, and methods of identifying agents useful therefore” (The Regents of the University of California, priority 2019, dated 2025):

Tested on: choline mobilization via the Kennedy pathway
Assay: Choline, phosphocholine and phosphatidylcholine content of LPS-stimulated BMDM (NMR, MS)
Assay type: cell-based, mouse
Settings: RSM932A-pretreated BMDM, LPS 4 hr
Protocol: Choline and Phosphocholine Analysis by NMR—BMDM were treated with LPS for 4 hr and then were collected and processed for NMR analysis as described (Guma et al., 2015a; Tiziani et al., 2009). Polar metabolite isolation was performed using a modified Bligh-Dyer procedure (Wu et al., 2008). Extracts were dried using a CentriVap refrigerated vacuum concentrator (Labconco, Kansas City, MO, USA). Dried extracts were reconstituted in 100 mM phosphate buffer (pH 7.0) prepared in 10% H2O/90% D2O (Sigma) that contained 0.5 mM sodium 3-(trimethylsilyl)propionate-2,2,3,3,-d4 (TMSP) as the internal standard. One-dimensional ^1H NMR spectra were acquired on a Bruker Avance III 500 MHz with 1.7 mm TCI MicroCryoProbe system (Bruker BioSpin Corp., Billerica, MA) equipped with an autosampler at 300 K and processed as previously described (Lodi et al., 2017; Lu et al., 2017; Ludwig and Gunther, 2011). Metabolite assignment and quantification were performed using the Chenomx 8.2 NMR Suite (Chenomx Inc., Edmonton, Alberta, Canada), the Birmingham Metabolite Library (Ludwig et al., 2012), and the Human Metabolome Database (Wishart et al., 2012).
Total phosphatidylcholine and mitochondrial lipids analysis by mass spectrometry—Total phosphatydilcholine (PC) analysis was measured in RSM932A-pretreated BMDM stimulated with LPS for 4 hr, while mitochondrial lipids were measured in mitochondria isolated from BMDM cultured in control or choline deficient medium and subjected to different treatments for 24 hr. Samples were processed for UHPLC-MS/MS analysis and analysis was performed on a hybrid quadrupole-Orbitrap mass spectrometer (Q Exactive, Thermo Scientific, Bremen, Germany) coupled to an Accela 1250 UHPLC system equipped with a quaternary pump, vacuum degasser, and open autosampler with temperature controller (6° C.; Fisher Scientific, San Jose, CA, USA). […]

C/[N+](c1ccc(Cl)cc1)=c1\ccn(Cc2ccc(-c3ccc(Cn4cc/c(=[N+](/C)c5ccc(Cl)cc5)c5ccccc54)cc3)cc2)c2ccccc12 [RSM932A]
LPS-induced increase in cellular content of phosphocholine, glycerol-3-phosphocholine and phosphatidylcholine (PC): blocked
